The record followed here is patent EP0314239A2, “Tripeptide renin inhibitors with N-terminal ureido or sulfamido groups” (Merck & Co., Inc., priority 1987, dated 1989).

The target of this experiment is T1, renin (Homo sapiens, UniProt P00797).
T1 sequence (P00797 67-406): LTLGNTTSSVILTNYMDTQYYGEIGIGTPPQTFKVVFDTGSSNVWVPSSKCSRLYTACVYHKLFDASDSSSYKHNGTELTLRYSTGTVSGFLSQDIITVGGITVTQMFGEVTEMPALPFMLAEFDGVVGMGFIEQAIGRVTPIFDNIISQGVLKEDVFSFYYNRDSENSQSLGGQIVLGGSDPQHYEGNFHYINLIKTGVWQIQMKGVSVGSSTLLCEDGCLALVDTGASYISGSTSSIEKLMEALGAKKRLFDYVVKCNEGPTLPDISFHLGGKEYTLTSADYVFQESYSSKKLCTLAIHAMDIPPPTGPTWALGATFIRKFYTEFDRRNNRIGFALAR
The experiment in a line: Renin inhibition IC50, by the methods of J. Med. Chem., 1985, 28, 1789-1790. It is filed as biochemical. From the text: The following examples are intended to be representative and not limiting. ICso results were obtained according to the methods described in J. Med. Chem., 1985, 28, 1789-1790.

A word on the IC50: it is the concentration that gives 50% inhibition. Low readings indicate higher potency, high ones lower potency. Consider `CC[C@H](C)CNC(=O)C[C@H](O)[C@H](CC1CCCCC1)NC(=O)[C@H](Cc1c[nH]cn1)NC(=O)[C@H](Cc1ccccc1)NC(=O)N1CCOCC1` [Example 4, N-(Morpholin-4-yl)carbonyl-Phenylalanyl-Histidyl-ACHPA-2(S)-Methylbutylamide], for which the half-inhibitory concentration (IC50) worked out at 5 nM.

In turn, `CC[C@H](C)CNC(=O)C[C@H](O)[C@H](CC1CCCCC1)NC(=O)[C@H](Cc1c[nH]cn1)NC(=O)[C@H](Cc1ccccc1)NC(=O)N1CCN(C(=O)OC(C)(C)C)CC1` [Example 5, N-(4-Boc-Piperizinyl)Carbonyl-Phenylalanyl-Histidyl-ACHPA-2(S)Methylbutylamide] registered an IC50 of 10 nM. Under `CC[C@H](C)CNC(=O)C[C@H](O)[C@H](CC1CCCCC1)NC(=O)[C@H](Cc1c[nH]cn1)NC(=O)[C@H](Cc1ccccc1)NC(=O)N1CCNCC1` [Example 6, N-(Piperazin-1-yl)carbonyl-Phenylalanyl-Histidyl-ACHPA-2(S)-Methylbutylamide] stands 43 nM; under `C[N+]12CCC(CC1)C(NC(=O)C[C@H](O)[C@H](CC1CCCCC1)NC(=O)[C@H](Cc1c[nH]cn1)NC(=O)[C@H](Cc1ccccc1)NC(=O)N1CCOCC1)C2` (stereo partly drawn) [Example 7, N-(morpholin-4-yl)carbonyl-L-Phenylalanyl-L-Histidyl(3S,4S)-4-Amino-5-Cyclohexyl-3-Hydroxypentanoyl-1-Methylquinuclidinium-3-yl-Amide Acetate], 29 nM; under `O=C(C[C@H](O)[C@H](CC1CCCCC1)NC(=O)[C@H](Cc1c[nH]cn1)NC(=O)[C@H](Cc1ccccc1)NC(=O)N1CCOCC1)NC1CN2CCC1CC2` (stereo partly drawn) [N-(morpholin-4-yl)carbonyl-L-Phenylalanyl-L-Histidyl-(3S,4S)-4-amino-5-cyclohexyl-3-hydroxy pentanoyl-3-quinuclidinyl amide], 30 nM.
